Results as given in patent US9969747B2 (Constellation Pharmaceuticals, Inc., priority 2014, dated 2018).
Values joined by “and” are separate entries in the source; they are usually repeats but may differ in a detail not shown here. Equal entries are not always repeated. Where two headings read alike, the source gives them in different places.

What was measured:
[1] = Solubility and form stability in deionized water; assay type: physicochemical
[2] = Oral pharmacokinetics in male Sprague Dawley rats, suspension in 0.5% Methylcellulose; assay type: in vivo; conditions: for Plasma concentration, PO1: group value
[3] = Oral pharmacokinetics in male beagle dogs, crossover, suspension in 0.5% MC; assay type: in vivo; conditions: for Inter-individual variability: 2 mg/Kg oral, crossover
Procedure: The objective was to compare the pharmacokinetic profiles of both forms in dogs using a crossover study design in which the same dogs were dosed sequentially with amorphous and monohydrate crystalline Form A with a washout period in between.

[4] = Gravimetric moisture sorption; assay type: physicochemical; conditions: over a relative humidity range of 5 to 95%
Excerpt: This level of stability is rare for many pharmaceutical compounds, and particularly for hydrated forms since most are typically stable only at lower threshold values. Typically, one would expect to see stability of a monohydrate stoichiometry over a more limited range, e.g., between 30 to 70%. At relative humidity levels below 30% a compound would still retain water, but the stoichiometric ratio would be less than that of a true monohydrate. Likewise, at high relative humidity, the stoichiometric ratio of water to compound would exceed that of a monohydrate.

[5] = 60 mg/Kg single oral dose, 1 h, 60 mg/kg
[6] = 60 mg/Kg single oral dose, 1 h, 60 mg/kg, in ng/mL
[7] = 60 mg/Kg single oral dose, 2 h, 60 mg/kg
[8] = 60 mg/Kg single oral dose, 2 h, 60 mg/kg, in ng/mL
[9] = 60 mg/Kg single oral dose, 4 h, 60 mg/kg
[10] = 60 mg/Kg single oral dose, 8 h, 60 mg/kg
[11] = 60 mg/Kg single oral dose, 24 h, 60 mg/kg
[12] = male beagle dog, 2 mg/Kg single oral dose, 0.25 h, 2 mg/kg
[13] = male beagle dog, 2 mg/Kg single oral dose, 0.5 h, 2 mg/kg
[14] = male beagle dog, 2 mg/Kg single oral dose, 1 h, 2 mg/kg
[15] = male beagle dog, 2 mg/Kg single oral dose, 2 h, 2 mg/kg
[16] = male beagle dog, 2 mg/Kg single oral dose, 4 h, 2 mg/kg
[17] = male beagle dog, 2 mg/Kg single oral dose, 6 h, 2 mg/kg
[18] = male beagle dog, 2 mg/Kg single oral dose, 8 h, 2 mg/kg
[19] = male beagle dog, 2 mg/Kg single oral dose, 12 h, 2 mg/kg
[20] = male beagle dog, 2 mg/Kg single oral dose, 24 h, 2 mg/kg
[21] = male beagle dog, 2 mg/Kg single oral dose, 2 mg/kg
[22] = 60 mg/Kg single oral dose, 60 mg/kg

Cc1noc2c1-c1ccccc1C(c1ccc(Cl)cc1)=N[C@H]2CC(N)=O [amorphous form, 2-((4S)-6-(4-chlorophenyl)-1-methyl-4H-benzo[c]isoxazolo[4,5-e]azepin-4-yl)acetamide]
Form change upon slurry in deionized water ([1]; slurry in deionized water for 24 hr at ambient temperature): conversion to monohydrate Form A was observed | Plasma concentration, individual rats [2, 5]: 8650 ng/mL | Plasma concentration, Mean [2, 6]: 11700 | Plasma concentration, individual rats [2, 6]: 12700 and 13800 | Plasma concentration, individual rats [2, 7]: 8830 ng/mL | Plasma concentration, Mean [2, 8]: 11900 | Plasma concentration, individual rats [2, 8]: 14900 and 12100 | Plasma concentration, Mean [2, 9]: 9860 ng/mL | Plasma concentration, individual rats [2, 9]: 8410 ng/mL and 9370 ng/mL | Plasma concentration, individual rats ([2]; 60 mg/Kg single oral dose, 4 h, 60 mg/kg, in ng/mL): 11800 | Plasma concentration, Mean [2, 10]: 6440 ng/mL | Plasma concentration, individual rats [2, 10]: 6550 ng/mL and 6450 ng/mL and 6310 ng/mL | Plasma concentration, Mean ([2]; 60 mg/Kg single oral dose, 24 h): BQL | Plasma concentration, individual rats [2, 11]: BQL | Cmax ([2]; male, Sprague Dawley, rat, plasma, po, 60 mg/kg, 60 mg/Kg single oral dose, read-out: Cmax): 11900 ng/mL | Tmax ([2]; rat, plasma, 60 mg/Kg single oral dose, read-out: Tmax): 2 h | Inter-individual variability ([3]; male beagle dog): low inter-individual variability | Plasma concentration, Mean [3, 12]: 188 ng/mL | Plasma concentration, Mean [3, 13]: 471 ng/mL | Plasma concentration, Mean [3, 14]: 658 ng/mL | Plasma concentration, Mean [3, 15]: 577 ng/mL | Plasma concentration, Mean [3, 16]: 528 ng/mL | Plasma concentration, Mean [3, 17]: 289 ng/mL | Plasma concentration, Mean [3, 18]: 232 ng/mL | Plasma concentration, Mean [3, 19]: 153 ng/mL | Plasma concentration, Mean [3, 20]: 64 ng/mL | AUC0-inf, individual dogs [3, 21]: 5120 ng·h/mL and 7510 ng·h/mL and 6550 ng·h/mL and 4950 ng·h/mL and 7070 ng·h/mL | AUC0-last, individual dogs [3, 21]: 4560 ng·h/mL and 6220 ng·h/mL and 5540 ng·h/mL and 4610 ng·h/mL and 6060 ng·h/mL | Cmax, individual dogs [3, 21]: 646 ng/mL and 681 ng/mL and 672 ng/mL and 705 ng/mL and 706 ng/mL | MRT0-last, individual dogs [3, 21]: 7.73 h (2×) and 6.48 h and 7.69 h | T1/2, individual dogs [3, 21]: 7.86 h and 10.17 h and 9.21 h and 6.82 h and 9.17 h | Tmax, individual dogs [3, 21]: 1.00 h (5×) and 4.00 h | Tmax ([3]; male, beagle, dog, plasma, po, 2 mg/kg, 2 mg/Kg single oral dose): 1.5 h | AUC(0-inf) ([3]; male, beagle, dog, plasma, po, 2 mg/kg, 2 mg/Kg single oral dose, read-out: AUC0-inf, Mean): 6220 ng·h/mL | AUC(0-inf) ([3]; male, beagle, dog, plasma, po, 2 mg/kg, 2 mg/Kg single oral dose, read-out: AUC0-inf, individual dogs): 6110 ng·h/mL | AUC(0-t) ([3]; male, beagle, dog, plasma, po, 2 mg/kg, 2 mg/Kg single oral dose, read-out: AUC0-last, Mean): 5390 ng·h/mL | AUC(0-t) ([3]; male, beagle, dog, plasma, po, 2 mg/kg, 2 mg/Kg single oral dose, read-out: AUC0-last, individual dogs): 5370 ng·h/mL | Cmax ([3]; male, beagle, dog, plasma, po, 2 mg/kg, 2 mg/Kg single oral dose, read-out: Cmax, Mean): 670 ng/mL | Cmax ([3]; male, beagle, dog, plasma, po, 2 mg/kg, 2 mg/Kg single oral dose, read-out: Cmax, individual dogs): 609 ng/mL | MRT inf ([3]; male, beagle, dog, plasma, po, 2 mg/kg, 2 mg/Kg single oral dose, read-out: MRT0-inf, Mean): 11.2 h | MRT inf ([3]; male, beagle, dog, plasma, po, 2 mg/kg, 2 mg/Kg single oral dose, read-out: MRT0-inf, individual dogs): 11 h | MRT last ([3]; male, beagle, dog, plasma, po, 2 mg/kg, 2 mg/Kg single oral dose, read-out: MRT0-last, Mean): 7.45 h | MRT last ([3]; male, beagle, dog, plasma, po, 2 mg/kg, 2 mg/Kg single oral dose, read-out: MRT0-last, individual dogs): 7.59 h | half-life ([3]; male, beagle, dog, plasma, po, 2 mg/kg, 2 mg/Kg single oral dose, read-out: T1/2, Mean (converted)): 8.59 h | half-life ([3]; male, beagle, dog, plasma, po, 2 mg/kg, 2 mg/Kg single oral dose, read-out: T1/2, individual dogs (converted)): 8.31 h

Cc1noc2c1-c1ccccc1C(c1ccc(Cl)cc1)=N[C@H]2CC(N)=O [monohydrate Form A, 2-((4S)-6-(4-chlorophenyl)-1-methyl-4H-benzo[c]isoxazolo[4,5-e]azepin-4-yl)acetamide]
Stability of the form in deionized water ([1]; deionized water): stable | solubility ([1]; deionized water, water, thermodynamic from solid): 4.5 µg/mL | Water content (monohydrate stoichiometry) in gravimetric moisture sorption [4]: approximately 5% | Plasma concentration, individual rats ([2]; 10 mg/Kg single oral dose, 299 s, 10 mg/kg): 51.3 ng/mL and 182 ng/mL and 89.2 ng/mL and 191 ng/mL and 166 ng/mL and 31.5 ng/mL | Plasma concentration, individual rats ([2]; 10 mg/Kg single oral dose, 1.00 h, 10 mg/kg): 1940 ng/mL and 1620 ng/mL and 1510 ng/mL and 2300 ng/mL and 1790 ng/mL and 1600 ng/mL | Plasma concentration, PO1 ([2]; 10 mg/Kg single oral dose, 1.00 h): 1790 ng/mL | Plasma concentration, individual rats ([2]; 10 mg/Kg single oral dose, 2.00 h, 10 mg/kg): 1400 ng/mL and 1320 ng/mL and 1420 ng/mL and 1650 ng/mL and 950 ng/mL and 1000 ng/mL | Plasma concentration, PO1 ([2]; 10 mg/Kg single oral dose, 2.00 h): 1290 ng/mL | Plasma concentration, individual rats ([2]; 10 mg/Kg single oral dose, 4.00 h, 10 mg/kg): 611 ng/mL and 349 ng/mL and 569 ng/mL and 544 ng/mL and 166 ng/mL and 255 ng/mL | Plasma concentration, PO1 ([2]; 10 mg/Kg single oral dose, 4.00 h): 416 ng/mL | Plasma concentration, individual rats ([2]; 10 mg/Kg single oral dose, 8.00 h, 10 mg/kg): 56.3 ng/mL and 18.1 ng/mL and 32.4 ng/mL and 13.6 ng/mL and 2.93 ng/mL and 18.2 ng/mL | Plasma concentration, PO1 ([2]; 10 mg/Kg single oral dose, 8.00 h): 23.6 ng/mL | Tmax ([2]; 60 mg/Kg single oral dose): 2.0 h | AUC0-last [2, 22]: 52800 ng·h/mL | Cmax [2, 22]: 7197 ng/mL | Plasma concentration, Mean ([2]; 60 mg/Kg single oral dose, 299 s): 304 ng/mL | Plasma concentration, individual rats ([2]; 60 mg/Kg single oral dose, 299 s, 60 mg/kg): 183 ng/mL and 407 ng/mL and 512 ng/mL and 158 ng/mL and 391 ng/mL and 172 ng/mL | Plasma concentration, Mean ([2]; 60 mg/Kg single oral dose, 0.250 h): 2150 ng/mL | Plasma concentration, individual rats ([2]; 60 mg/Kg single oral dose, 0.250 h, 60 mg/kg): 1830 ng/mL and 2770 ng/mL and 2670 ng/mL and 2150 ng/mL and 2050 ng/mL and 1420 ng/mL | Plasma concentration, Mean ([2]; 60 mg/Kg single oral dose, 0.500 h): 4060 ng/mL | Plasma concentration, individual rats ([2]; 60 mg/Kg single oral dose, 0.500 h, 60 mg/kg): 3610 ng/mL and 5250 ng/mL and 3790 ng/mL and 4120 ng/mL and 4050 ng/mL and 3550 ng/mL | Plasma concentration, Mean [2, 5]: 5530 ng/mL | Plasma concentration, individual rats [2, 5]: 5290 ng/mL and 6110 ng/mL and 6840 ng/mL and 5440 ng/mL and 4740 ng/mL and 4770 ng/mL | Plasma concentration, Mean [2, 7]: 7200 ng/mL | Plasma concentration, individual rats [2, 7]: 8220 ng/mL and 7490 ng/mL and 6700 ng/mL and 8330 ng/mL and 6850 ng/mL and 5590 ng/mL | Plasma concentration, Mean [2, 9]: 6070 ng/mL | Plasma concentration, individual rats [2, 9]: 7740 ng/mL and 4850 ng/mL and 5160 ng/mL and 8350 ng/mL and 5690 ng/mL and 4650 ng/mL | Plasma concentration, Mean [2, 10]: 1760 ng/mL | Plasma concentration, individual rats [2, 10]: 3050 ng/mL and 805 ng/mL and 1220 ng/mL and 1960 ng/mL and 2320 ng/mL and 1200 ng/mL | Plasma concentration, individual rats [2, 11]: BQL (5×) and 1.04 | AUC(0-t) ([2]; male, Sprague Dawley, rat, plasma, po, 10 mg/kg, 10 mg/Kg single oral dose): 5500 ng·h/mL | Cmax ([2]; male, Sprague Dawley, rat, plasma, po, 10 mg/kg, 10 mg/Kg single oral dose, read-out: Cmax): 1790 ng/mL | Inter-individual differences ([2]; oral, 10 and 60 mg/Kg): Low inter-individual differences | Dose proportionality of Cmax and AUC ([2]; oral, dose increases from 10 to 60 mg/Kg): increase slightly more than proportionally with the dose | Tmax ([2]; rat, plasma, 10 mg/Kg single oral dose, read-out: Tmax): 1 h | Inter-individual variability ([3]; male beagle dog): low inter-individual variability | Tmax, Mean ([3]; male beagle dog, 2 mg/Kg single oral dose): 1.50 h | Plasma concentration, Mean [3, 12]: 100 ng/mL | Plasma concentration, Mean [3, 13]: 330 ng/mL | Plasma concentration, Mean [3, 14]: 522 ng/mL | Plasma concentration, Mean [3, 15]: 512 ng/mL | Plasma concentration, Mean [3, 16]: 435 ng/mL | Plasma concentration, Mean [3, 17]: 278 ng/mL | Plasma concentration, Mean [3, 18]: 214 ng/mL | Plasma concentration, Mean [3, 19]: 151 ng/mL | Plasma concentration, Mean [3, 20]: 67.1 ng/mL | AUC0-inf, Mean [3, 21]: 5853 ng·h/mL | AUC0-inf, individual dogs [3, 21]: 5350 ng·h/mL and 4540 ng·h/mL and 7490 ng·h/mL and 4980 ng·h/mL and 6220 ng·h/mL and 6540 ng·h/mL | AUC0-last, Mean [3, 21]: 4892 ng·h/mL | AUC0-last, individual dogs [3, 21]: 4650 ng·h/mL and 4040 ng·h/mL and 5850 ng·h/mL and 3960 ng·h/mL and 5390 ng·h/mL and 5460 ng·h/mL | Cmax, Mean [3, 21]: 536 ng/mL | Cmax, individual dogs [3, 21]: 542 ng/mL and 482 ng/mL and 615 ng/mL and 459 ng/mL and 549 ng/mL and 569 ng/mL | MRT0-last, Mean [3, 21]: 7.95 h | MRT0-last, individual dogs [3, 21]: 7.74 h and 7.34 h and 8.38 h and 8.01 h and 7.93 h and 8.32 h | T1/2, Mean [3, 21]: 9.70 h | T1/2, individual dogs [3, 21]: 8.60 h and 8.14 h and 11.97 h and 11.58 h and 8.31 h and 9.57 h | Tmax, individual dogs [3, 21]: 2.00 h
